Measurements published in article PMC5547395 (EXCLI Journal, 2017).
pKd: −log10 of the molar value.

Tests used:
[1] = biological target: T1, Sterol 14α-demethylase (CYP51) from Candida albicans (CaCYP51) (Candida albicans, UniProt P10613); experiment: UV-visible difference spectroscopy (type II spectral response) with isolated CYP51; assay type: binding
T1 construct: gene ERG11

human CYP51 (hCYP51) = biological target: T2, human CYP51 (hCYP51) (Homo sapiens, UniProt Q16850); experiment: Kd reported; presumably UV-visible difference spectroscopy (type II), human assay not described in Methods; assay type: binding
T2 construct: gene CYP51A1
T2 sequence (Q16850 1-509): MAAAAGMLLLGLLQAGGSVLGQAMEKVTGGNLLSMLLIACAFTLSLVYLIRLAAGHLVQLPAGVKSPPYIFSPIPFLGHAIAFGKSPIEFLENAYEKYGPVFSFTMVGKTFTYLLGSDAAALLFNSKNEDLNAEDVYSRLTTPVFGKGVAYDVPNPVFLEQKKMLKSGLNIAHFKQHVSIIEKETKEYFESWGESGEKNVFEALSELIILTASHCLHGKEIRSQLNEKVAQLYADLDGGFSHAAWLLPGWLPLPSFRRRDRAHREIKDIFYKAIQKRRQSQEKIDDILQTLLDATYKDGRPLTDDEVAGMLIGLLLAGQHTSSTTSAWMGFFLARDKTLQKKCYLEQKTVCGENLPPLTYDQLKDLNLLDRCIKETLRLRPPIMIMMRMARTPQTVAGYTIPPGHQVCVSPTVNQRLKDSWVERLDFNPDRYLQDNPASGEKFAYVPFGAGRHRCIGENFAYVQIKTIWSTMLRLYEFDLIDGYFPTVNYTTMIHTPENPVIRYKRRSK

T1 sequence (P10613 whole entry): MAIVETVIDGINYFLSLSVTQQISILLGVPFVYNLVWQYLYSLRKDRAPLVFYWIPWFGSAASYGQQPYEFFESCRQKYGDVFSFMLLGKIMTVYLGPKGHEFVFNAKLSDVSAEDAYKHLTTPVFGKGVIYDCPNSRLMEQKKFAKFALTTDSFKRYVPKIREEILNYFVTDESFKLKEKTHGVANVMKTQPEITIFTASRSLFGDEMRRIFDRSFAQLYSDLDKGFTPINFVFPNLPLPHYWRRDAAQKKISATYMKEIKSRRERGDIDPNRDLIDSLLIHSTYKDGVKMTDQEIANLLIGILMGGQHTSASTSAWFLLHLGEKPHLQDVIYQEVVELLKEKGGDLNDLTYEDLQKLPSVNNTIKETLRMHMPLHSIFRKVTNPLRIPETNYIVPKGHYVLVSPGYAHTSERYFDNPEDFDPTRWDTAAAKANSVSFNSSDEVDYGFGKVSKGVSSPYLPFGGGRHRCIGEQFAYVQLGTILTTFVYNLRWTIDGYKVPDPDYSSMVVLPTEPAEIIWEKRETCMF

**Q.** With `CC(=O)N1CCN(c2ccc(OC[C@H]3CO[C@](Cn4ccnc4)(c4ccc(Cl)cc4Cl)O3)cc2)CC1` (racemic) [ketoconazole] as the molecule, how does the pKd [1] read?
**A.** The pKd was greater than 7.30.

**Q.** What about the pKd (human CYP51 (hCYP51)) of the same molecule?
**A.** The pKd was greater than 7.30.
